Assay results reported in paper PMC12362585, “Development and Preclinical Characterization of [^18F]H3-2406 and [^18F]H3-2407 for Positron Emission Tomography Imaging of the Histamine Subtype‑3 Receptor” (Journal of Medicinal Chemistry, 2025).

What was measured:
[1] = molecular target: T1, H3R (Homo sapiens, UniProt Q9Y5N1); test: H3R competitive radioligand binding assay using [^3H]AZ13582963; conditions: competitive binding vs [^3H]AZ13582963; read-out: H3R K i
T1 construct: Gifford Bioscience (contract laboratory that ran the assay)
T1 sequence (Q9Y5N1 whole entry, species assumed): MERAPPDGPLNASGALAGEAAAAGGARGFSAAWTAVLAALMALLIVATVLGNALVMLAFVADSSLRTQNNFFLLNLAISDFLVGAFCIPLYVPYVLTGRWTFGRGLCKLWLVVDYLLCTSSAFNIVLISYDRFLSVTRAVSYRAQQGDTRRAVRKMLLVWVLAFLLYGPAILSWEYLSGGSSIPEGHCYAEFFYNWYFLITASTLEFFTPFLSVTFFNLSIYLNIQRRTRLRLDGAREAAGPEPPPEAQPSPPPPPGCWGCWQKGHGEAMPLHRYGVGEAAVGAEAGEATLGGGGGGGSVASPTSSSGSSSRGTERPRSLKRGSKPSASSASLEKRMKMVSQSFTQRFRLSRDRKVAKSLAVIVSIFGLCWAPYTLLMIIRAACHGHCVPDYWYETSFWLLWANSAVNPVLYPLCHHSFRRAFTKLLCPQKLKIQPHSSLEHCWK

[2] = molecular target: T2, H3R (Rattus norvegicus, UniProt Q9QYN8); test: In vitro autoradiography on rat brain sections; assay type: binding, SD rat
T2 construct: The brains of SD rat were sectioned into 15 μm slices; from tissue; host or cells: SD rat brain sections
T2 sequence (Q9QYN8 whole entry): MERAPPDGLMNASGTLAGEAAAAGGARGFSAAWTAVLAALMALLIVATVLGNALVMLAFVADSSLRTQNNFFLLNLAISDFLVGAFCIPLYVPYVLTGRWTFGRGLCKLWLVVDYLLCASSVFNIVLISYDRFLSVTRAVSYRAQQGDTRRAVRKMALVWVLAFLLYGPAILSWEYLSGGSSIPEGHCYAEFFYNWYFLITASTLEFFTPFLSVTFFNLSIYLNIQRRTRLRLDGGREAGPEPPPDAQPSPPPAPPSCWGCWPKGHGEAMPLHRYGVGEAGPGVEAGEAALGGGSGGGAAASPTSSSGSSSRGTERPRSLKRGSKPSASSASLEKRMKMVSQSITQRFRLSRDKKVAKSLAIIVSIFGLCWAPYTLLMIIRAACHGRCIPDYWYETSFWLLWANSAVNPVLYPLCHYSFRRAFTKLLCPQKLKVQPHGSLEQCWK
Protocol: To validate the target specificity and selectivity, in vitro autoradiography experiments were conducted using [^18F]3 and [^18F]4 on rat brain sections. […] Furthermore, pretreatment with unlabeled compound 3 (10 μM) led to a signal reduction of over 90% in the brain. […] This discrepancy is likely attributable to additional off-target binding of [^18F]3, which is further supported by high uptake in the cerebellum – a region with low H3R expression. […] The high uptake in the cerebellum may be attributed to nonspecific binding to unidentified CNS targets. […] Nonetheless, the results support further in vivo PET evaluation to better understand their binding profiles and evaluate their potential for H3R imaging – particularly in regions with low sigma-1 abundance.
The ARG was measured according to previously reported methods. , The brains of SD rat were sectioned into 15 μm slices and stored in −80 °C. For each experiment, the brain slices allowed them to warm to room temperature and then incubated in Tris-HCl buffer (50 mM, containing 0.1% bovine serum albumin) for 10 min. The slices were incubated with [^18F]3 or [^18F]4 (0.037 MBq/mL) in the presence of either DMSO (baseline study), GSK189254 (10 μM, blocking study), and unlabeled 3 or 4 (10 μM, blocking study) at room temperature for 30 min. Following incubation, the brain slices were washed three times with cold Tris-HCl buffer (50 mM) for 5 min each, and then dipped in water 2 times for 5 s. The brain slices were dried under cold air and exposed to a Phosphor Screen (BAS IP MS2025, Cytiva) for 2 h. The radioactivity and imaging were captured using an Amersham Typhoon 5 (Cytiva) and the data were analyzed using ImageJ software.

[3] = tested on: P-glycoprotein (P-gp) and breast cancer resistance protein (BCRP); test: PET imaging in mice pretreated with elacridar; assay type: in vivo; conditions: elacridar 3 mg/kg, 20 min prior to radioligand injection
Protocol: To determine whether [^18F]3 is actively effluxed by BBB transporters such as P-glycoprotein (P-gp) and breast cancer resistance protein (BCRP), we conducted additional PET scans in mice pretreated with elacridar (3 mg/kg, a dual P-gp/BCRP inhibitor) 20 min prior to radioligand injection.
Figure S4. Mice PET imaging studies (0−60 minutes) of [ 18F]3. (A) TACs of [ 18F]3 in the whole-brain under baseline and elacridar-blocking (3 mg/kg) conditions; (B) Area under curve of [ 18F]3 in the whole-brain; All data were referred to as mean ± SD, n = […]
The molar activities of [18F]3 and [18F]4 were determined using calibration curves, which were generated by plotting the concentration of the authentic standard compounds 3 or 4 against their respective flow injection analysis peak area ratios ([…]). Based on these calibration curves, the molar activities of [18F]3 and [18F]4 were calculated and reported as GBq/µmol.
Figure S5. Calibration curves of compounds 3 (A) and 4 (B). The standard curve was generated by plotting the HPLC UV signal area against concentrations of the compounds 3 or 4. Linear regression analysis was performed to determine the correlation between peak area and […]

[4] = Ex vivo whole-body biodistribution; assay type: in vivo; conditions: 5 min postadministration, CD1 mice
Protocol: To further investigate the whole-body distribution of [^18F]3, ex vivo biodistribution experiments were conducted in CD1 mice at 5-, 15-, 30-, and 60 min postadministration. […] Initially, high levels of radioactivity were detected in the heart, lung, and kidney, with subsequent clearance observed in these organs over time. […] Minimal radioactivity was detected in the blood and bone at all time points throughout the study. […] These findings indicate that our tracer is relatively stable against in vivo defluorination.
A dose of 1.0 MBq of [^18F]3 in 0.1 mL saline was intravenously injected into the tail vein of CD1 mice (5–6 weeks). At various time-points (5-, 15-, 30- and 60 min) postinjection, the mice were sacrificed, and their organs were collected and weighed. The radioactivity of each organ was measured using a γ counter (PerkinElmer Wizard).

[5] = Ex vivo radiometabolite analysis in brain and plasma; conditions: CD1 mice, 30 min postinjection
Protocol: Next, ex vivo stability in the brain and plasma of CD1 mice was analyzed by radio-HPLC (Figure ). At 30 min postinjection, the parent fraction of [^18F]3 in the brain was determined to be 96%, indicating excellent in vivo metabolic stability. In the blood, 31% of the radioactivity remained intact.
A dose of 15 MBq of [^18F]3 in 0.1 mL saline was intravenously injected into the tail vein of CD1 mice (5–6 weeks). The mice were sacrificed at 30 min postinjection, and the mice brain and blood were quickly collected and homogenized with cold acetonitrile. […] The radioactivity for each fraction was measured using a γ counter (PerkinElmer Wizard). Data analysis was performed by GraphPad Prism 8.0, and the percentage of [^18F]3 relative to total radioactivity (corrected for decay) was calculated as (peak area for [^18F]3 /total peak area) × 100%.

Ki [1]: 2.87 nM | reduction in radioactivity across brain regions, GSK189254 blocking ([2]; GSK189254 10 μM): 43.6–86.0% | signal reduction, self-blocking with unlabeled compound ([2]; unlabeled 3 or 4 at 10 μM): over 90% | change of brain uptake after elacridar pretreatment [3]: did not significantly change | brain uptake [4]: 10.9 %ID/g | parent fraction in the brain [5]: 96%
SMILES: O=C([C@H]1C[C@@H]1c1ccc([18F])cc1)N1CCN(C2CCCC2)CC1 [[^18F]3]
